Structures can show the parent of a compound that is named as a salt.
Tested on: patients with seasonal allergic rhinitis (SAR)
Assay: MP 428 two-week randomized double-blind study: Total Nasal Symptom Score (TNSS), change from baseline
Format: in vivo, human
Set-up: key to Change from Baseline in AM TNSS, Mean / Change from Baseline in AM TNSS, LS Mean / Change from Baseline in AM TNSS, Median: TNSS sum of 4 symptoms each 0-3 (0=none, 3=severe); change from baseline
Details: for AUC of Change from Baseline in TNSS (AM and PM Combined), Mean / AUC of Change from Baseline in TNSS (AM and PM Combined), Median / AUC of Change from Baseline in TNSS (AM and PM Combined), LS Mean: Day 1 to Day 14; for AUC of Change from Baseline in TNSS (AM and PM Combined), LS Mean: ANCOVA
Experimental: A two-week, randomized, double-blind study, which evaluated the effects of the co-administration of ASTELIN® (azelastine hydrochloride (HCl)) and FLONASE® (fluticasone propionate) compared to either product alone in patients with seasonal allergic rhinitis (SAR) was conducted during the 2006 Texas mountain cedar season. After a 5-day placebo lead-in period, 151 patients with moderate-to-severe allergic rhinitis symptoms were randomized to either: (1) (49 total patients) ASTELIN® (azelastine hydrochloride (HCl)) plus placebo saline nasal spray 2 sprays per nostril, 15 minutes apart, twice daily (AM & PM); (2) (50 total patients) FLONASE® (fluticasone propionate) plus placebo saline nasal spray, 2 sprays per nostril, 15 minutes apart, once daily (AM) and two sessions of placebo saline nasal spray, 2 sprays per nostril, 15 minutes apart (PM); or (3) (52 total patients) the co-administration of ASTELIN® (azelastine hydrochloride (HCl)) 2 sprays per nostril plus FLONASE® (fluticasone propionate) 2 sprays per nostril (AM), 15 minutes apart, and ASTELIN® (azelastine hydrochloride (HCl)) 2 sprays per nostril plus placebo saline nasal spray, 15 minutes apart, (PM) for a 2-week double-blind treatment period.
The primary efficacy variable was the change from baseline in the Total Nasal Symptom Score (TNSS), which comprised sneezing, itchy nose, runny nose, and nasal congestion (individual symptoms scores were assigned a value between 0 and 3, where 0=no symptoms and 3=severe symptoms). This study was not statistically designed to assess the differences between ASTELIN® and FLONASE®.

[1] = Day 12, Per-Protocol Population
[2] = Day 13, Intent-to-Treat Population
[3] = Day 13, Per-Protocol Population
[4] = Day 14, Intent-to-Treat Population
[5] = Day 14, Per-Protocol Population
[6] = Overall (Day 2 to Day 14), Intent-to-Treat Population
[7] = Overall (Day 2 to Day 14), Per-Protocol Population

CN1CCCC(n2nc(Cc3ccc(Cl)cc3)c3ccccc3c2=O)CC1 (racemic) [Azelastine, (±)-1-(2H)-phthalazinone, 4-[(4-chlorophenyl)methyl]-2-(hexahydro-1-methyl-1H-azepin-4-yl)-, mono-hydrochloride]
Percent Change from Baseline in PM TNSS, Median (Day 12, Intent-to-Treat Population): −25.00% | Change from Baseline in AM and PM Combined TNSS, LS Mean (Day 12, Intent-to-Treat Population, ANCOVA model): −5.46 | Change from Baseline in AM and PM Combined TNSS, LS Mean [1]: −5.40 | Change from Baseline in AM and PM Combined TNSS, Mean [1]: −5.54 | Change from Baseline in AM and PM Combined TNSS, Median [1]: −5.00 | Percent Change from Baseline in AM and PM Combined TNSS, LS Mean [1]: −27.82% | Percent Change from Baseline in AM and PM Combined TNSS, Mean [1]: −28.25% | Percent Change from Baseline in AM and PM Combined TNSS, Median [1]: −25.86% | Change from Baseline in AM TNSS, LS Mean [2]: −2.55 | Change from Baseline in AM TNSS, Mean [2]: −2.50 | Change from Baseline in AM TNSS, Median [2]: −1.80 | Change from Baseline in AM and PM Combined TNSS, Mean [2]: −5.70 | Change from Baseline in AM and PM Combined TNSS, Median [2]: −5.30 | Change from Baseline in PM TNSS, LS Mean [2]: −3.11 | Change from Baseline in PM TNSS, Mean [2]: −3.21 | Change from Baseline in PM TNSS, Median [2]: −3.00 | Percent Change from Baseline in AM TNSS, LS Mean [2]: −26.36% | Percent Change from Baseline in AM TNSS, Mean [2]: −26.20% | Percent Change from Baseline in AM TNSS, Median [2]: −18.37% | Percent Change from Baseline in AM and PM Combined TNSS, LS Mean [2]: −29.24% | Percent Change from Baseline in AM and PM Combined TNSS, Mean [2]: −29.35% | Percent Change from Baseline in AM and PM Combined TNSS, Median [2]: −26.15% | Percent Change from Baseline in PM TNSS, LS Mean [2]: −32.19% | Percent Change from Baseline in PM TNSS, Mean [2]: −32.27% | Percent Change from Baseline in PM TNSS, Median [2]: −33.33% | Change from Baseline in AM and PM Combined TNSS, LS Mean (Day 13, Intent-to-Treat Population, ANCOVA model): −5.65 | Change from Baseline in AM and PM Combined TNSS, LS Mean [3]: −5.59 | Change from Baseline in AM and PM Combined TNSS, Mean [3]: −5.70 | Change from Baseline in AM and PM Combined TNSS, Median [3]: −5.30 | Percent Change from Baseline in AM and PM Combined TNSS, LS Mean [3]: −29.06% | Percent Change from Baseline in AM and PM Combined TNSS, Mean [3]: −29.35% | Percent Change from Baseline in AM and PM Combined TNSS, Median [3]: −26.15% | Change from Baseline in AM TNSS, LS Mean [4]: −2.56 | Change from Baseline in AM TNSS, Mean [4]: −2.52 | Change from Baseline in AM TNSS, Median [4]: −2.00 | Change from Baseline in AM and PM Combined TNSS, Mean [4]: −5.62 | Change from Baseline in AM and PM Combined TNSS, Median [4]: −5.30 | Change from Baseline in PM TNSS, LS Mean [4]: −3.00 | Change from Baseline in PM TNSS, Mean [4]: −3.10 | Change from Baseline in PM TNSS, Median [4]: −2.80 | Percent Change from Baseline in AM TNSS, LS Mean [4]: −26.51% | Percent Change from Baseline in AM TNSS, Mean [4]: −26.44% | Percent Change from Baseline in AM TNSS, Median [4]: −20.00% | Percent Change from Baseline in AM and PM Combined TNSS, LS Mean [4]: −28.70% | Percent Change from Baseline in AM and PM Combined TNSS, Mean [4]: −28.86% | Percent Change from Baseline in AM and PM Combined TNSS, Median [4]: −25.00% | Percent Change from Baseline in PM TNSS, LS Mean [4]: −31.07% | Percent Change from Baseline in PM TNSS, Mean [4]: −31.14% | Percent Change from Baseline in PM TNSS, Median [4]: −28.57% | Change from Baseline in AM and PM Combined TNSS, LS Mean (Day 14, Intent-to-Treat Population, ANCOVA model): −5.56 | Change from Baseline in AM and PM Combined TNSS, LS Mean [5]: −5.50 | Change from Baseline in AM and PM Combined TNSS, Mean [5]: −5.62 | Change from Baseline in AM and PM Combined TNSS, Median [5]: −5.30 | Percent Change from Baseline in AM and PM Combined TNSS, LS Mean [5]: −28.52% | Percent Change from Baseline in AM and PM Combined TNSS, Mean [5]: −28.86% | Percent Change from Baseline in AM and PM Combined TNSS, Median [5]: −25.00% | AUC of Change from Baseline in TNSS (AM and PM Combined), Mean (Intent-to-Treat Population): −60.38 | AUC of Change from Baseline in TNSS (AM and PM Combined), Median (Intent-to-Treat Population): −56.00 | AUC of Change from Baseline in TNSS (AM and PM Combined), LS Mean (Intent-to-Treat Population): −59.72 | Change from Baseline in AM TNSS, LS Mean [6]: −2.22 | Change from Baseline in AM TNSS, Mean [6]: −2.21 | Change from Baseline in AM TNSS, Median [6]: −1.86 | Change from Baseline in AM and PM Combined TNSS, Mean [6]: −4.73 | Change from Baseline in AM and PM Combined TNSS, Median [6]: −4.24 | Change from Baseline in PM TNSS, LS Mean [6]: −2.57 | Change from Baseline in PM TNSS, Mean [6]: −2.51 | Change from Baseline in PM TNSS, Median [6]: −2.38 | Percent Change from Baseline in AM TNSS, LS Mean [6]: −23.13% | Percent Change from Baseline in AM TNSS, Mean [6]: −23.29% | Percent Change from Baseline in AM TNSS, Median [6]: −19.23% | Percent Change from Baseline in AM and PM Combined TNSS, LS Mean [6]: −24.78% | Percent Change from Baseline in AM and PM Combined TNSS, Mean [6]: −24.47% | Percent Change from Baseline in AM and PM Combined TNSS, Median [6]: −24.26% | Percent Change from Baseline in PM TNSS, LS Mean [6]: −26.45% | Percent Change from Baseline in PM TNSS, Mean [6]: −25.39% | Percent Change from Baseline in PM TNSS, Median [6]: −21.68% | Change from Baseline in AM and PM Combined TNSS, LS Mean (Overall (Day 2 to Day 14), Intent-to-Treat Population, ANCOVA model): −4.76 | Change from Baseline in AM and PM Combined TNSS, LS Mean [7]: −4.73 | Change from Baseline in AM and PM Combined TNSS, Mean [7]: −4.73 | Change from Baseline in AM and PM Combined TNSS, Median [7]: −4.24 | Percent Change from Baseline in AM and PM Combined TNSS, LS Mean [7]: −24.72% | Percent Change from Baseline in AM and PM Combined TNSS, Mean [7]: −24.47% | Percent Change from Baseline in AM and PM Combined TNSS, Median [7]: −24.26% | AUC of Change from Baseline in TNSS (AM and PM Combined), Mean (Per-Protocol Population): −60.38 | AUC of Change from Baseline in TNSS (AM and PM Combined), Median (Per-Protocol Population): −56.00 | AUC of Change from Baseline in TNSS (AM and PM Combined), LS Mean (Per-Protocol Population): −59.23

Source: patent US8758816B2, “Compositions comprising azelastine and methods of use thereof” (priority 2004, dated 2014)
